# Experimental data reported in US12077503B2, “Substituted cyclic amides and their use as herbicides” (FMC CORPORATION, priority 2015, dated 2024).
# Like-named read-outs stand apart in the source and are kept apart here.
# Assays:
# rice (Oryra sativa) = experiment: Test B flooded paddy test; type: in vivo; details: Flood, 250 g ai/ha; for pest or weed control at 250 g/ha: Oryza sativa, read-out: Rice plant response rating
# Procedure, shortened: (§1)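 Greenhouse paddy pots with 2-leaf stage plants received compound by direct addition to floodwater 3 cm deep, kept at that level. Scored visually at 13–15 d versus controls (0 no effect; 100 complete control).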
# [1] = tested on: barnyardgrass (Echinochloa crus-galli); experiment: Test B flooded paddy test; type: in vivo; details: Flood, 250 g ai/ha; for pest or weed control at 250 g/ha: Echinochloa crus-galli, read-out: Barnyardgrass plant response rating
# Procedure, shortened: as §1
# [2] = tested on: ducksalad (Heteranthera limosa); experiment: Test B flooded paddy test; type: in vivo; details: Flood, 250 g ai/ha; for pest or weed control at 250 g/ha: Heteranthera limosa, read-out: Ducksalad plant response rating
# Procedure, shortened: as §1
# [3] = tested on: sedge, umbrella (small-flower umbrella sedge, Cyperus difformis); experiment: Test B flooded paddy test; type: in vivo; details: Flood, 250 g ai/ha; for pest or weed control at 250 g/ha: Cyperus difformis, read-out: Sedge, Umbrella plant response rating
# Procedure, shortened: as §1
# [4] = tested on: goosegrass (Eleusine indica); experiment: Test E preemergence; type: in vivo; details: scale 0 to 100
# Excerpt: (§2) Seeds of plant species selected from corn (Zea mays), soybean (Glycine max), velvetleaf (Abutilon theophrasti), lambsquarters (Chenopodium album), poinsettia, wild (wild poinsettia, Euphorbia heterophylla), pigweed, palmer (palmer pigweed, Amaranthus palmeri), waterhemp (common waterhemp, Amaranthus rudis), surinam grass (Brachiaria decumbens), crabgrass, large (large crabgrass, Digitaria sangumnalis), crabgrass, Brazil (Brazilian crabgrass, Digitaria horizontalis), Panicum, fall (fall Panicum, Panicum dichotomiflorum), foxtail, giant (giant foxtail, Setaria faberii), foxtail, green (green foxtail, Setaria viridis), goosegrass (Eleusine indica), johnsongrass (Sorghum halepense), ragweed (common ragweed, Ambrosia elatior), barnyardgrass (Echinochloa crus-galli), sandbur (southern sandbur, Cenchrus echinatus), arrowleaf Sida (Sida rhombifolia), ryegrass, Italian (Italian ryegrass, Lolium multiflorum), dayflower, VA (Virginia dayflower, Commelina virginica), field bindweed (Convolvulus arvensis), morningglory (Ipomoea coccinea), nightshade (eastern black nightshade, Solanum ptycanthum), Kochia (Kochia scoparia), nutsedge, yellow (yellow nutsedge, Cyperus esculentus), horseweed (Conyza canadensis), and beggarticks (hairy beggarticks, Bidens pilosa), were planted into a silt loam soil and treated preemergence with test chemicals formulated in a non-phytotoxic solvent mixture which included a surfactant.
# (§3) At the same time, plants selected from these crop and weed species were planted in pots containing Sunshine Redi-Earth planting medium comprising spaghnum peat moss, vermiculite, starter nutrients and dolomitic limestone and treated with postemergence applications of a test chemical formulated in the same manner. Plants ranged in height from 2 to 18 cm (1- to 4-leaf stage) for postemergence treatments. Treated plants and controls were maintained in a greenhouse for 14 to 21 d, after which time all species were compared to controls and visually evaluated. Plant response ratings, summarized in Table E, are based on a scale of 0 to 100 where 0 is no effect and 100 is complete control. A dash (-) response means no test result.
# [5] = tested on: arrowleaf Sida (Sida rhombifolia); experiment: Test E preemergence; type: in vivo; details: scale 0 to 100
# Excerpt: as §2, §3
# [6] = tested on: foxtail, green (green foxtail, Setaria viridis); experiment: Test E preemergence; type: in vivo; details: scale 0 to 100
# Excerpt: as §2, §3
# [7] = tested on: field bindweed (Convolvulus arvensis); experiment: Test E preemergence; type: in vivo; details: scale 0 to 100
# Excerpt: as §2, §3
# [8] = tested on: velvetleaf (Abutilon theophrasti); experiment: Test E preemergence; type: in vivo; details: scale 0 to 100
# Excerpt: as §2, §3
# [9] = tested on: crabgrass, large (large crabgrass, Digitaria sangumnalis); experiment: Test E preemergence; type: in vivo; details: scale 0 to 100
# Excerpt: as §2, §3
# [10] = tested on: lambsquarters (Chenopodium album); experiment: Test E preemergence; type: in vivo; details: scale 0 to 100
# Excerpt: as §2, §3
# [11] = tested on: morningglory (Ipomoea coccinea); experiment: Test E preemergence; type: in vivo; details: scale 0 to 100
# Excerpt: as §2, §3
# [12] = tested on: sandbur (southern sandbur, Cenchrus echinatus); experiment: Test E preemergence; type: in vivo; details: scale 0 to 100
# Excerpt: as §2, §3
# [13] = tested on: nightshade (eastern black nightshade, Solanum ptycanthum); experiment: Test E preemergence; type: in vivo; details: scale 0 to 100
# Excerpt: as §2, §3
# [14] = tested on: pigweed, palmer (palmer pigweed, Amaranthus palmeri); experiment: Test E preemergence; type: in vivo; details: scale 0 to 100
# Excerpt: as §2, §3
# [15] = tested on: crabgrass, Brazil (Brazilian crabgrass, Digitaria horizontalis); experiment: Test E preemergence; type: in vivo; details: scale 0 to 100
# Excerpt: as §2, §3
# [16] = tested on: surinam grass (Brachiaria decumbens); experiment: Test E preemergence; type: in vivo; details: scale 0 to 100
# Excerpt: as §2, §3
# [17] = 0 to 100 scale where 0 is no effect and 100 is complete control, 13 to 15 d
# [18] = scale of 0 to 100 where 0 is no effect and 100 is complete control
# [19] = 0 to 100 scale where 0 is no effect and 100 is complete control
structure (smiles),measurement,setting,value
"CN1C[C@H](c2ccc(F)c(F)c2)[C@@H](C(=O)Nc2ccccc2F)C1=O [Compound 596, (3S,4S)-4-(3,4-difluorophenyl)-N-(2-fluorophenyl)-1-methyl-2-oxo-3-pyrrolidinecarboxamide]","Plant response rating, Rice",rice (Oryra sativa); [17],0
same,"Plant response rating, Barnyardgrass",[1]; [17],95
same,"Plant response rating, Ducksalad",[2]; [17],100
same,"Plant response rating, Sedge, Umbrella",[3]; [17],0
same,Plant response rating: Goosegrass,[4]; 31 g ai/ha,5
same,Plant response rating: Goosegrass,[4]; 62 g ai/ha,5
same,Plant response rating: Goosegrass,[4]; 125 g ai/ha,25
same,Plant response rating: Goosegrass,[4]; 250 g ai/ha,65
same,Plant response rating: Arrowleaf Sida,[5]; 31 g ai/ha,35
same,Plant response rating: Arrowleaf Sida,[5]; 62 g ai/ha,30
same,Plant response rating: Arrowleaf Sida,[5]; 125 g ai/ha,30
same,Plant response rating: Arrowleaf Sida,[5]; 250 g ai/ha,50
same,"Plant response rating: Foxtail, Green",[6]; 31 g ai/ha,95
same,"Plant response rating: Foxtail, Green",[6]; 62 g ai/ha,95
same,"Plant response rating: Foxtail, Green",[6]; 125 g ai/ha,95
same,"Plant response rating: Foxtail, Green",[6]; 250 g ai/ha,95
same,Plant response rating: Field Bindweed,[7]; 31 g ai/ha,0
same,Plant response rating: Field Bindweed,[7]; 62 g ai/ha,0
same,Plant response rating: Field Bindweed,[7]; 125 g ai/ha,0
same,Plant response rating: Field Bindweed,[7]; 250 g ai/ha,15
same,Plant response rating: Velvetleaf,[8]; 31 g ai/ha,0
same,Plant response rating: Velvetleaf,[8]; 62 g ai/ha,0
same,Plant response rating: Velvetleaf,[8]; 125 g ai/ha,0
same,Plant response rating: Velvetleaf,[8]; 250 g ai/ha,35
same,"Plant response rating: Crabgrass, Large",[9]; 31 g ai/ha,95
same,"Plant response rating: Crabgrass, Large",[9]; 62 g ai/ha,95
same,"Plant response rating: Crabgrass, Large",[9]; 125 g ai/ha,98
same,"Plant response rating: Crabgrass, Large",[9]; 250 g ai/ha,98
same,Plant response rating: Lambsquarters,[10]; 31 g ai/ha,25
same,Plant response rating: Lambsquarters,[10]; 62 g ai/ha,25
same,Plant response rating: Lambsquarters,[10]; 125 g ai/ha,80
same,Plant response rating: Lambsquarters,[10]; 250 g ai/ha,90
same,Plant response rating: Morningglory,[11]; 31 g ai/ha,0
same,Plant response rating: Morningglory,[11]; 62 g ai/ha,0
same,Plant response rating: Morningglory,[11]; 125 g ai/ha,0
same,Plant response rating: Morningglory,[11]; 250 g ai/ha,0
same,Plant response rating: Sandbur,[12]; 31 g ai/ha,85
same,Plant response rating: Sandbur,[12]; 62 g ai/ha,90
same,Plant response rating: Sandbur,[12]; 125 g ai/ha,90
same,Plant response rating: Sandbur,[12]; 250 g ai/ha,95
same,Plant response rating: Nightshade,[13]; 31 g ai/ha,0
same,Plant response rating: Nightshade,[13]; 62 g ai/ha,0
same,Plant response rating: Nightshade,[13]; 125 g ai/ha,0
same,Plant response rating: Nightshade,[13]; 250 g ai/ha,60
same,"Plant response rating: Pigweed, Palmer",[14]; 31 g ai/ha,0
same,"Plant response rating: Pigweed, Palmer",[14]; 62 g ai/ha,0
same,"Plant response rating: Pigweed, Palmer",[14]; 125 g ai/ha,0
same,"Plant response rating: Pigweed, Palmer",[14]; 250 g ai/ha,40
same,"Plant response rating: Crabgrass, Brazil",[15]; 31 g ai/ha,100
same,"Plant response rating: Crabgrass, Brazil",[15]; 62 g ai/ha,95
same,"Plant response rating: Crabgrass, Brazil",[15]; 125 g ai/ha,100
same,"Plant response rating: Crabgrass, Brazil",[15]; 250 g ai/ha,100
same,Plant response rating: Surinam Grass,[16]; 31 g ai/ha,35
same,Plant response rating: Surinam Grass,[16]; 62 g ai/ha,65
same,Plant response rating: Surinam Grass,[16]; 125 g ai/ha,95
same,Plant response rating: Surinam Grass,[16]; 250 g ai/ha,95
CN1C[C@H](c2ccc(C(F)(F)F)cc2)[C@@H](C(=O)Nc2cccc(F)c2Br)C1=O [Compound 937],melting point,,160 to 163 °C
same,pest or weed control at 250 g/ha,rice (Oryra sativa); [18],0%
same,pest or weed control at 250 g/ha,[1]; [18],0%
same,pest or weed control at 250 g/ha,[2]; [18],45%
same,pest or weed control at 250 g/ha,[3]; [18],0%
CN1CC(c2ccccc2OC(F)(F)C(F)F)C(C(=O)Nc2ccccc2F)C1=O (stereo not drawn) [Compound 1053],melting point,,118 to 121 °C
same,pest or weed control at 250 g/ha,rice (Oryra sativa); [19],0%
same,pest or weed control at 250 g/ha,[1]; [19],0%
same,pest or weed control at 250 g/ha,[2]; [19],0%
same,pest or weed control at 250 g/ha,[3]; [19],0%
O=C1NCC(c2ccccc2OC(F)(F)C(F)F)C1C(=O)Nc1cccc(F)c1F (stereo not drawn) [Compound 1054],melting point,,192 to 196 °C
same,pest or weed control at 250 g/ha,rice (Oryra sativa); [19],0%
same,pest or weed control at 250 g/ha,[1]; [19],0%
same,pest or weed control at 250 g/ha,[2]; [19],0%
same,pest or weed control at 250 g/ha,[3]; [19],0%
CSc1ccccc1NC(=O)C1C(=O)NCC1C=C(C)C (stereo not drawn) [Compound 1055],melting point,,100 to 104 °C
same,pest or weed control at 250 g/ha,rice (Oryra sativa); [19],0%
same,pest or weed control at 250 g/ha,[1]; [19],0%
same,pest or weed control at 250 g/ha,[2]; [19],30%
same,pest or weed control at 250 g/ha,[3]; [19],0%
CN1CC(c2ccccc2OC(F)(F)C(F)F)C(C(=O)Nc2cccc(F)c2F)C1=O (stereo not drawn) [Compound 1056],melting point,,130 to 134 °C
same,pest or weed control at 250 g/ha,rice (Oryra sativa); [19],20%
same,pest or weed control at 250 g/ha,[1]; [19],0%
same,pest or weed control at 250 g/ha,[2]; [19],0%
same,pest or weed control at 250 g/ha,[3]; [19],0%
CC(C)=CC1CNC(=O)C1C(=O)Nc1ccccc1S(C)(=O)=O (stereo not drawn) [Compound 1057],melting point,,159 to 163 °C
same,pest or weed control at 250 g/ha,rice (Oryra sativa); [19],0%
same,pest or weed control at 250 g/ha,[1]; [19],30%
same,pest or weed control at 250 g/ha,[2]; [19],85%
same,pest or weed control at 250 g/ha,[3]; [19],0%
O=C1NC[C@H](c2cccc(I)c2)[C@H]1C(=O)Nc1ccccc1F [Compound 1160],melting point,,161 to 164 °C
same,pest or weed control at 250 g/ha,rice (Oryra sativa); [19],20%
same,pest or weed control at 250 g/ha,[1]; [19],0%
same,pest or weed control at 250 g/ha,[2]; [19],80%
same,pest or weed control at 250 g/ha,[3]; [19],0%
O=C1NC[C@H](c2nccs2)[C@H]1C(=O)Nc1ccccc1F [Compound 1181],melting point,,123 to 127.7 °C
same,pest or weed control at 250 g/ha,rice (Oryra sativa); [19],0%
same,pest or weed control at 250 g/ha,[1]; [19],0%
same,pest or weed control at 250 g/ha,[2]; [19],35%
same,pest or weed control at 250 g/ha,[3]; [19],0%
